Biological target: T1, HPK1 (Homo sapiens, UniProt Q92918)
T1 construct: A HiBiT tag was introduced by CRISPR on the N terminus of HPK1 in Jurkat cells; host or cells: Jurkat cells (ATCC TIB-152), monoclonal line with CRISPR knock-in of HiBiT at the endogenous HPK1 locus
Assay: HPK1 Cellular HiBit Degradation Assay
Assay type: cell-based
Details: HiBiT HPK1 Jurkat cells, 24 hrs; for DC50: concentration at which 50% of HPK1 was remaining, read-out: DC50 Category; for Dmax: Jurkat, maximum degradation vs DMSO vehicle control, read-out: Dmax Category
Summary of the method: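 HPK1 levels are read by HiBiT luminescence after 24 h exposure of HiBiT-knock-in Jurkat cells to compound at 10 uM–0.1 nM final (11 points). Relative to DMSO (100%), DC50 is the concentration leaving 50% HPK1 from a variable-slope fit, and Dmax is 100 minus minimum remaining. Viability checked in-plate.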

T1 sequence (Q92918 whole entry): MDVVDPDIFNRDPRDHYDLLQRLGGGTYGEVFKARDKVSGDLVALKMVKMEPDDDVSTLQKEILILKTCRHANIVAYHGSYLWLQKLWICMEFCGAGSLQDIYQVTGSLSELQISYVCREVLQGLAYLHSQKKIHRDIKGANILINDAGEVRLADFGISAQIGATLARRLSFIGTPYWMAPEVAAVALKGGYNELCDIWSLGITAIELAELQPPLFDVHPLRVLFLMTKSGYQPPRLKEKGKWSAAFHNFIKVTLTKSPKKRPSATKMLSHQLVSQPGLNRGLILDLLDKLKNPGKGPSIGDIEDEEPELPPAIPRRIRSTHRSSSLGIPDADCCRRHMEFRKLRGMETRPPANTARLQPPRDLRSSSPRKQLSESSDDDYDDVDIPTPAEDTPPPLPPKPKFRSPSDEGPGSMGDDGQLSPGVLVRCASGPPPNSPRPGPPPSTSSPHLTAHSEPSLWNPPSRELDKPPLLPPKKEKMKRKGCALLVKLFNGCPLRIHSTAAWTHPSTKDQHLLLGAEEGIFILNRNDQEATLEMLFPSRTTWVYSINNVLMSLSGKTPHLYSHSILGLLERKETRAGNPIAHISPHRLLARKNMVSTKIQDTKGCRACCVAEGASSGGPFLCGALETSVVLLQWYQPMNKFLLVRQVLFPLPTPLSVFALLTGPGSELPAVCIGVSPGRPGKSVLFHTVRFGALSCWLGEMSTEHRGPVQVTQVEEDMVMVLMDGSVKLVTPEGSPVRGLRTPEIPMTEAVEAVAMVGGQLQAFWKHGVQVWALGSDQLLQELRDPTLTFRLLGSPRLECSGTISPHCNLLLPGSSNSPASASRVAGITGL

Row | DC50 [nM] | Dmax [%] | SMILES
1 | < 100 | 70 to 85 | CC(C)n1cnc2cc(-c3ccc4c(c3)N([C@H]3C[C@@H](N5CCCCC5)C3)C(=O)C43CCN(C(=O)[C@@]45C[C@@H]4CN(C(=O)C4CCN(c6ccc(C7CCC(=O)NC7=O)cn6)CC4)C5)CC3)nc(NC3CC3)c21 (mixture of isomers) [Example 259, (3RS)-3-(6-{4-[(1S,5S)-1-({6-[4-(cyclopropylamino)-3-(propan-2-yl)-3H-imidazo[4,5-c]pyridin-6-yl]-2-oxo-1-[(1S,3S)-3-(piperidin-1-yl)cyclobutyl]-1,2-dihydrospiro[indole-3,4′-piperidin]-1′-yl}carbonyl)-3-azabicyclo[3.1.0]hexane-3-carbonyl]piperidin-1-yl}pyridin-3-yl)piperidine-2,6-dione]
2 | < 100 | 50 to 70 | CC(C)n1cnc2cc(-c3ccc4c(c3)N([C@H]3C[C@@H](N5CCCCC5)C3)C(=O)C43CCN(C(=O)C4CCN(C(=O)[C@H]5CC[C@H](Oc6ccc(C7CCC(=O)NC7=O)cc6)CC5)CC4)CC3)nc(NC3CC3)c21 (mixture of isomers) [Example 59, (3RS)-3-(4-{[(1R,4R)-4-[4-({6-[4-(cyclopropylamino)-3-(propan-2-yl)-3H-imidazo[4,5-c]pyridin-6-yl]-2-oxo-1-[(1S,3S)-3-(piperidin-1-yl)cyclobutyl]-1,2-dihydrospiro[indole-3,4′-piperidin]-1′-yl}carbonyl)piperidine-1-carbonyl]cyclohexyl]oxy}phenyl)piperidine-2,6-dione]
3 | < 100 | 70 to 85 | CC(C)n1cnc2cc(-c3ccc4c(c3)N([C@H]3C[C@@H](N5CCCCC5)C3)C(=O)C43CCN(C(=O)C4CCN(C(=O)[C@H]5CC[C@H](Nc6ccc(C7CCC(=O)NC7=O)cc6)CC5)CC4)CC3)nc(Nc3ccccc3F)c21 (mixture of isomers) [Example 54, (3RS)-3-(4-{[(1R,4R)-4-{4-[(6-{4-[(2-fluorophenyl)amino]-3-(propan-2-yl)-3H-imidazo[4,5-c]pyridin-6-yl}-2-oxo-1-[(1S,3S)-3-(piperidin-1-yl)cyclobutyl]-1,2-dihydrospiro[indole-3,4′-piperidin]-1′-yl)carbonyl]piperidine-1-carbonyl}cyclohexyl]amino}phenyl)piperidine-2,6-dione]
4 | 100 to 500 | 50 to 70 | CC(C)n1cnc2cc(-c3ccc4c(c3)N([C@H]3C[C@@H](N5CCCCC5)C3)C(=O)C43CCN(C(=O)C4CCN(C(=O)[C@H]5CC[C@H](Nc6ccc(C7CCC(=O)NC7=O)cc6)CC5)CC4)CC3)nc(Nc3ccncc3F)c21 (mixture of isomers) [Example 55, (3RS)-3-(4-{[(1R,4R)-4-{4-[(6-{4-[(3-Fluoropyridin-4-yl)amino]-3-(propan-2-yl)-3H-imidazo[4,5-c]pyridin-6-yl}-2-oxo-1-[(1S,3S)-3-(piperidin-1-yl)cyclobutyl]-1,2-dihydrospiro[indole-3,4′-piperidin]-1′-yl)carbonyl]piperidine-1-carbonyl}cyclohexyl]amino}phenyl)piperidine-2,6-dione]
5 | < 100 | > 85 | CC(C)n1cnc2cc(-c3ccc4c(c3)N([C@H]3C[C@@H](N5CCCCC5)C3)C(=O)C43CCN(C(=O)[C@@H]4CCN(C(=O)[C@H]5CC[C@H](N(C)c6ccc(C7CCC(=O)NC7=O)cn6)CC5)C4)CC3)nc(NC3CC3)c21 (mixture of isomers) [Example 126, (3RS)-3-(6-{methyl[(1R,4R)-4-[(3R)-3-({6-[4-(cyclopropylamino)-3-(propan-2-yl)-3H-imidazo[4,5-c]pyridin-6-yl]-2-oxo-1-[(1S,3S)-3-(piperidin-1-yl)cyclobutyl]-1,2-dihydrospiro[indole-3,4′-piperidin]-1′-yl}carbonyl)pyrrolidine-1-carbonyl]cyclohexyl]amino}pyridin-3-yl)piperidine-2,6-dione]
6 | < 100 | 70 to 85 | CC(C)n1cnc2cc(-c3ccc4c(c3)N([C@H]3C[C@@H](N5CCCCC5)C3)C(=O)C43CCN(C(=O)C4CCN(C(=O)[C@H]5CC[C@H](C(=O)N6CCc7cc(C8CCC(=O)NC8=O)ccc7C6)CC5)CC4)CC3)nc(Nc3ccccc3F)c21 (stereo partly drawn) [Example 48, 3-(2-((1R,4R)-4-(4-(6-(4-((2-fluorophenyl)amino)-3-isopropyl-3H-imidazo[4,5-c]pyridin-6-yl)-2-oxo-1-((1S,3S)-3-(piperidin-1-yl)cyclobutyl)spiro[indoline-3,4′-piperidine]-1′-carbonyl)piperidine-1-carbonyl)cyclohexane-1-carbonyl)-1,2,3,4-tetrahydroisoquinolin-6-yl)piperidine-2,6-dione]
7 | 500 to 1000 | 50 to 70 | Cc1cc(F)c(Nc2nc(-c3ccc4c(c3)N([C@H]3C[C@@H](N5CCCCC5)C3)C(=O)C43CCN(C(=O)CC4CCN(C(=O)C5CCN(C(=O)CNc6cccc7c6C(=O)N(C6CCC(=O)NC6=O)C7=O)CC5)CC4)CC3)cc3ncn(C(C)C)c23)cc1C(=O)NC(C)C (mixture of isomers) [Example 99, 5-[(6-{1′-[2-(1-{1-[2-({2-[(3RS)-2,6-dioxopiperidin-3-yl]-1,3-dioxo-2,3-dihydro-1H-isoindol-4-yl}amino)acetyl]piperidine-4-carbonyl}piperidin-4-yl)acetyl]-2-oxo-1-[(1S,3S)-3-(piperidin-1-yl)cyclobutyl]-1,2-dihydrospiro[indole-3,4′-piperidin]-6-yl}-3-(propan-2-yl)-3H-imidazo[4,5-c]pyridin-4-yl)amino]-4-fluoro-2-methyl-N-(propan-2-yl)benzamide]
8 | < 100 | 70 to 85 | CC(C)n1cnc2cc(-c3ccc4c(c3)N([C@H]3C[C@@H](N5CCCCC5)C3)C(=O)C43CCN(C(=O)C4(C)CCN(C(=O)CC5CCN(c6ccc(C7CCC(=O)NC7=O)cn6)CC5)CC4)CC3)nc(NC3CC3)c21 (mixture of isomers) [Example 221, (3RS)-3-[6-(4-{2-[4-({6-[4-(cyclopropylamino)-3-(propan-2-yl)-3H-imidazo[4,5-c]pyridin-6-yl]-2-oxo-1-[(1S,3S)-3-(piperidin-1-yl)cyclobutyl]-1,2-dihydrospiro[indole-3,4′-piperidin]-1′-yl}carbonyl)-4-methylpiperidin-1-yl]-2-oxoethyl}piperidin-1-yl)pyridin-3-yl]piperidine-2,6-dione]
9 | < 100 | 70 to 85 | CC(C)n1cnc2cc(-c3ccc4c(c3)N([C@H]3C[C@@H](N5CCCCC5)C3)C(=O)C43CCN(C(=O)C4CCN(C(=O)C5CCN(c6ncc(C7CCC(=O)NC7=O)cn6)CC5)CC4)CC3)nc(Nc3ccccc3F)c21 (stereo partly drawn) [Example 90, 3-(2-(4-(4-(6-(4-((2-fluorophenyl)amino)-3-isopropyl-3H-imidazo[4,5-c]pyridin-6-yl)-2-oxo-1-((1S,3S)-3-(piperidin-1-yl)cyclobutyl)spiro[indoline-3,4′-piperidine]-1′-carbonyl)piperidine-1-carbonyl)piperidin-1-yl)pyrimidin-5-yl)piperidine-2,6-dione]

Row | SMILES | DC50 [nM] | Dmax [%]
10 | CC(C)n1cnc2cc(-c3ccc4c(c3)N([C@H]3C[C@@H](N5CCCCC5)C3)C(=O)C43CCN(C(=O)[C@@H]4C[C@H]5CC[C@@H](C4)N5C(=O)C4CCN(c5ccc(C6CCC(=O)NC6=O)cc5)CC4)CC3)nc(NC3CC3)c21 (mixture of isomers) [Example 262, (3RS)-3-(4-{4-[(1R,3R,5S)-3-({6-[4-(cyclopropylamino)-3-(propan-2-yl)-3H-imidazo[4,5-c]pyridin-6-yl]-2-oxo-1-[(1S,3S)-3-(piperidin-1-yl)cyclobutyl]-1,2-dihydrospiro[indole-3,4′-piperidin]-1′-yl}carbonyl)-8-azabicyclo[3.2.1]Octane-8-carbonyl]piperidin-1-yl}phenyl)piperidine-2,6-dione] | < 100 | 70 to 85

Source: patent publication US12091426B2, “Bifunctional degraders of hematopoietic progenitor kinase and therapeutic uses thereof” (Nurix Therapeutics, Inc., priority 2021, dated 2024)
